The source made the active and inactive calls.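 How the source made its calls: active means mean IC50 under 10 µM against uracil DNA glycosylase, used as a counter screen; inactive means the rest.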

Chain of Uracil-DNA glycosylase (Escherichia coli (strain K12)) (P12295 whole entry, looked up): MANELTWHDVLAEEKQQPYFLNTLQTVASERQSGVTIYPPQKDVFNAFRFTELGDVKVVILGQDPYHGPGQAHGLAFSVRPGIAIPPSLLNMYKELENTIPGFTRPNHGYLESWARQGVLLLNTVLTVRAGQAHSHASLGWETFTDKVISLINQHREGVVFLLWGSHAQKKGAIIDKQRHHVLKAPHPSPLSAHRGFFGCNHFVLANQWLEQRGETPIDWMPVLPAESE

This experiment concerns the target Uracil-DNA glycosylase (Escherichia coli (strain K12)) (UniProt P12295). The experiment can be described thus: uracil-DNA glycosylase cleavage inhibition – biochemical, UDG counterscreen, counter-screen for APOBEC3G deaminase inhibitor project, SAR follow-up (AID 602135). The note with it: FAM/TAMRA oligo fluorescence. For orientation: The purpose of a counterscreen is to sort out artefacts and off-target activity.
`O=C(NCc1ccc2c(c1)OCO2)c1cc2ncc(Br)cn2n1`: the IC50 was > 99 µM (inactive).

For `Cc1ccc(C)n1Cc1ccc(C(=O)O)cc1`, the IC50 was > 99 µM (inactive).

`CC(C(=O)O)N1C(=O)/C(=C/C=C/c2ccco2)SC1=S` (stereo not given): the IC50 is > 99 µM (inactive).

Take `Cc1ccc2c(c1C)NC(C(=O)O)C1CC=CC21` (stereo not given): the IC50 was > 99 µM (inactive).

As for `Cc1ccc(-c2csc3n[nH]c(=S)n23)cc1`, the IC50 was > 99 µM (inactive).

Consider `Nn1c(-c2cccc(Br)c2)n[nH]c1=S`, for which the IC50 is > 99 µM (inactive).

As to `O=C1NC(=S)NC(=O)C1=Cc1ccc2c(c1)CCN2CCCCl`, the IC50 was > 99 µM (inactive).

As to `CC(=O)c1ccc2c(c1)C1C=CCC1C(C(=O)O)N2` (stereo not given), the IC50 is > 99 µM (inactive).

With `CCn1ncc(-c2ccnc3cc(C(=O)O)nn23)c1C`, the IC50 was > 99 µM (inactive).

`Cn1nc([N+](=O)[O-])nc1S(C)(=O)=O`: the IC50 is > 99 µM (inactive).

Consider `Cc1ccc[n+](CC(=O)Nc2cc(C(F)(F)F)ccc2N2CCOCC2)c1`, for which the IC50 was > 99 µM (inactive).

Regarding `CCCCn1c(=O)c2ccccc2n2c(=S)[nH]nc12`, the IC50 is > 99 µM (inactive).

For `COc1ccc(-c2nc(=S)[nH][nH]2)cc1`, the IC50 is > 99 µM (inactive).

As for `CCC(=O)Nc1cccc(-c2nnc(SCC(=O)NCc3ccco3)n2C)c1`, the IC50 is > 99 µM (inactive).

As for `COc1cc(C=Nn2c(-c3n[nH]c4c3CCC4)n[nH]c2=S)ccc1O`, the IC50 is > 99 µM (inactive).

As for `CC1(C)Oc2ccc3ccc(=O)oc3c2/C(=C/NCCO)C1=O`, the IC50 was > 99 µM (inactive).

On to `CC(C)(C)NC(=O)CSc1nc2ccc(NC(=O)CSc3nnc(N)s3)cc2s1`, for which the IC50 is > 99 µM (inactive).

Regarding `Cc1ccc2[nH]cc(/C=C/c3cc[n+](C)cc3)c2c1`, the IC50 is > 99 µM (inactive).

On to `C[n+]1cccc(C(=O)Nc2ccccc2)c1`, for which the IC50 is > 99 µM (inactive).

As for `S=c1[nH]nc(NCCc2ccccc2)s1`, the IC50 is > 99 µM (inactive).

On to `CCCCCn1c(=O)c2ccccc2n2c(=S)[nH]nc12`, for which the IC50 was > 99 µM (inactive).

For `O=C(NCc1ccc2c(c1)OCO2)c1nn2cccnc2c1Cl`, the IC50 was > 99 µM (inactive).

For `CCOC(=O)c1ccc2c(c1)N(C)C(=O)c1ccccc1S2`, the IC50 is > 99 µM (inactive).

On to `S=c1[nH]nc2c3c4c(sc3ncn12)CCCC4`, for which the IC50 was > 99 µM (inactive).

For `Cc1ccc(C=Nn2c(-c3ccco3)n[nH]c2=S)s1`, the IC50 was > 99 µM (inactive).

In general, IC50 refers to the midpoint of a concentration-inhibition curve.

Source of the values: PubChem BioAssay AID602135 (Sanford-Burnham Center for Chemical Genomics, 2011).
